Results from patent publication US12139492B2 (Endotarget Inc., priority 2021, dated 2024).
Read-outs that look alike come from different tables or passages of the source.

Legend:
BTK = BTK (Homo sapiens, UniProt Q06187); assay: Degradation of BTK protein in Namalwa cells (Western blot; DC50, Dmax); settings: for degradation of BTK protein: Namalwa B lymphocyte cells, various concentrations, 24 hours, Western blot; for DC50: read-out: DC50 (BTK degradation), concentration giving 50% reduction of BTK expression level, cell line not given; for Dmax: read-out: Dmax (BTK degradation)
Sequence of BTK (Q06187 whole entry): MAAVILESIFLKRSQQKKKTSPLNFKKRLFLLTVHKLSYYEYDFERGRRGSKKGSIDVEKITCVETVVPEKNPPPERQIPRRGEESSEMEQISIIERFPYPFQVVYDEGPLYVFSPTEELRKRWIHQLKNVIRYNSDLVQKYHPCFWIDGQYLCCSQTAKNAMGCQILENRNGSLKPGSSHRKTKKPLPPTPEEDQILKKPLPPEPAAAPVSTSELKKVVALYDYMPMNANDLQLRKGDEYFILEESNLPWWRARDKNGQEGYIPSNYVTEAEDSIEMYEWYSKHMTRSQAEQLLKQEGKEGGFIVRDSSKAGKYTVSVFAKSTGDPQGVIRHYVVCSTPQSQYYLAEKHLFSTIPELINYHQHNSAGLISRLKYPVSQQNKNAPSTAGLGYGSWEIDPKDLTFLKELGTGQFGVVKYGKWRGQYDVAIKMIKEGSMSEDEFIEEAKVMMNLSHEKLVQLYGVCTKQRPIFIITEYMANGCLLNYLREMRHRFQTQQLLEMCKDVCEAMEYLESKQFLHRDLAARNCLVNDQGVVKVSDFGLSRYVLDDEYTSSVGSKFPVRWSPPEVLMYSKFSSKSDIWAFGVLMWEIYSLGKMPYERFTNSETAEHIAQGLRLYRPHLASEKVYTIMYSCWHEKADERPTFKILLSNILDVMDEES

Mino cells = assay: Antiproliferative effect, MTS cell viability assay, Mino cells; assay type: cell-based; settings: Homo sapiens, Mino mantle cell lymphoma cells, read-out: IC50 (anti-proliferation) Mino cells
Method in brief: (§1)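 Mino and JeKo-1 mantle B-cell lymphoma lines were exposed to compound at 0, 0.001, 0.01, 0.1, 1 and 10 μM for 72 h. Viability was read by MTS reduction to formazan, measured as absorbance at 490 nm.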

JeKo-1 cells = assay: Antiproliferative effect, MTS cell viability assay, JeKo-1 cells; assay type: cell-based; settings: Homo sapiens; JeKo-1 mantle cell lymphoma cells; read-out: IC50 (anti-proliferation) JeKO-1 cells
Method in brief: as §1

Compound | DC50 (BTK) | Dmax (BTK) | degradation of BTK protein (BTK) | IC50 (Mino cells) | IC50 (JeKo-1 cells) | IC50 (Mino cells; MINO)
Nc1ncnc2c1c(-c1ccc(Oc3ccccc3)cc1)nn2C1CCN(CC2CCN(CC3CCN(c4ccc5c(c4)CN(C4CCC(=O)NC4=O)C5=O)CC3)C2)CC1 (stereo not drawn) [Compound 446, 3-(5-(4-((3-((4-(4-amino-3-(4-phenoxyphenyl)-1H-pyrazolo(3,4-d)pyrimidin-1-yl)piperidin-1-yl)methyl)pyrrolidin-1-yl)methyl)piperidin-1-yl)-1-oxoisoindolin-2-yl)piperidine-2,6-dione] | 10 to 50 nM | > 90% | dose-dependent degradation | 1000 to 10000 nM | 1000 to 10000 nM | 
Nc1ncnc2c1c(-c1ccc(Oc3ccccc3)cc1)nn2C1CCN(C[C@H]2CCN(CC3CCN(c4ccc5c(c4)CN(C4CCC(=O)NC4=O)C5=O)CC3)C2)CC1 (stereo partly drawn) [Compound 446a, 3-(5-(4-(((R)-3-((4-(4-amino-3-(4-phenoxyphenyl)-1H-pyrazolo[3,4-d]pyrimidin-1-yl)piperidin-1-yl)methyl)pyrrolidin-1-yl)methyl)piperidin-1-yl)-1-oxoisoindolin-2-yl)piperidine-2,6-dione] | 10 to 50 nM | > 90% |  |  | 1000 to 10000 nM | 1000 to 10000 nM
Nc1ncnc2c1c(-c1ccc(Oc3ccccc3)cc1)nn2C1CCN(C[C@@H]2CCN(CC3CCN(c4ccc5c(c4)CN(C4CCC(=O)NC4=O)C5=O)CC3)C2)CC1 (stereo partly drawn) [Compound 446b, 3-(5-(4-(((S)-3-((4-(4-amino-3-(4-phenoxyphenyl)-1H-pyrazolo[3,4-d]pyrimidin-1-yl)piperidin-1-yl)methyl)pyrrolidin-1-yl)methyl)piperidin-1-yl)-1-oxoisoindolin-2-yl)piperidine-2,6-dione] | 10 to 50 nM | > 90% |  |  | 1000 to 10000 nM | < 1000 nM
Nc1ncnc2c1c(-c1ccc(Oc3ccccc3)cc1)nn2C1CCN(CC2CCN(CC3CCN(c4ccc5c(c4)C(=O)N(C4CCC(=O)NC4=O)C5=O)C3)C2)CC1 (stereo not drawn) [Compound 447, 5-(3-((3-((4-(4-amino-3-(4-phenoxyphenyl)-1H-pyrazolo(3,4-d)pyrimidin-1-yl)piperidin-1-yl)methyl)pyrrolidin-1-yl)methyl)pyrrolidin-1-yl)-2-(2,6-dioxopiperidin-3-yl)isoindoline-1,3-dione] | 10 to 50 nM | > 90% | dose-dependent degradation |  | 1000 to 10000 nM | 1000 to 10000 nM

Continued, in another order:

DC50 (BTK) | Dmax (BTK) | Compound | degradation of BTK protein (BTK) | IC50 (Mino cells) | IC50 (JeKo-1 cells) | IC50 (Mino cells; MINO)
10 to 50 nM | > 90% | Nc1ncnc2c1c(-c1ccc(Oc3ccccc3)cc1)nn2C1CCN(C[C@H]2CCN(C[C@H]3CCN(c4ccc5c(c4)C(=O)N(C4CCC(=O)NC4=O)C5=O)C3)C2)CC1 (stereo partly drawn) [Compound 447a, 5-((R)-3-(((R)-3-((4-(4-amino-3-(4-phenoxyphenyl)-1H-pyrazolo[3,4-d]pyrimidin-1-yl)piperidin-1-yl)methyl)pyrrolidin-1-yl)methyl)pyrrolidin-1-yl)-2-(2,6-dioxopiperidin-3-yl)isoindoline-1,3-dione] |  |  | 1000 to 10000 nM | 1000 to 10000 nM
< 10 nM | > 90% | Nc1ncnc2c1c(-c1ccc(Oc3ccccc3)cc1)nn2C1CCN(C[C@H]2CCN(C[C@@H]3CCN(c4ccc5c(c4)C(=O)N(C4CCC(=O)NC4=O)C5=O)C3)C2)CC1 (stereo partly drawn) [Compound 447b, 5-((S)-3-(((R)-3-((4-(4-amino-3-(4-phenoxyphenyl)-1H-pyrazolo[3,4-d]pyrimidin-1-yl)piperidin-1-yl)methyl)pyrrolidin-1-yl)methyl)pyrrolidin-1-yl)-2-(2,6-dioxopiperidin-3-yl)isoindoline-1,3-dione] |  |  | 1000 to 10000 nM | 1000 to 10000 nM
< 10 nM | > 90% | Nc1ncnc2c1c(-c1ccc(Oc3ccccc3)cc1)nn2C1CCN(C[C@@H]2CCN(C[C@@H]3CCN(c4ccc5c(c4)C(=O)N(C4CCC(=O)NC4=O)C5=O)C3)C2)CC1 (stereo partly drawn) [Compound 447c, 5-((S)-3-(((S)-3-((4-(4-amino-3-(4-phenoxyphenyl)-1H-pyrazolo[3,4-d]pyrimidin-1-yl)piperidin-1-yl)methyl)pyrrolidin-1-yl)methyl)pyrrolidin-1-yl)-2-(2,6-dioxopiperidin-3-yl)isoindoline-1,3-dione] |  |  | 1000 to 10000 nM | 1000 to 10000 nM
